# Measurements as given in ChEMBL document CHEMBL5543131, “Discovery of Highly Potent Solute Carrier 13 Member 5 (SLC13A5) Inhibitors for the Treatment of Hyperlipidemia” (J Med Chem, 2024).
# Active and inactive are the calls of the source. The rule behind the calls is not given here.
# How the values were obtained:
# AML12 [1] = assay: Effect on lipid accumulation in oleic and palmitic acid induced mouse AML12 cells assessed as decrease in triglyceride level at 3 to 30 uM; type: functional, cell-based; conditions: dose 3-30 µM
# AML12 [2] = assay: Effect on lipid accumulation in oleic and palmitic acid induced mouse AML12 cells assessed as decrease in total cholesterol level at 3 to 30 uM; type: functional, cell-based; conditions: dose 3-30 µM
# AML12 [3] = assay: Effect on lipid accumulation in oleic and palmitic acid induced mouse AML12 cells assessed as decrease in total cholesterol level; type: functional, cell-based; conditions: dose 3-30 µM
# AML12 [4] = assay: Effect on lipid accumulation in oleic and palmitic acid induced mouse AML12 cells assessed as decrease in triglyceride level; type: functional, cell-based; conditions: dose 3-30 µM
# [5] = tested on: O=C(O)CC(O)(CCc1ccc(-c2ccccc2)cc1)C(=O)O; assay: Binding affinity to SLC13A5 (unknown origin) assessed as Km; conditions: Homo sapiens
# Sequence of Na(+)/citrate cotransporter (Homo sapiens), Q86YT5 (Q86YT5 whole entry): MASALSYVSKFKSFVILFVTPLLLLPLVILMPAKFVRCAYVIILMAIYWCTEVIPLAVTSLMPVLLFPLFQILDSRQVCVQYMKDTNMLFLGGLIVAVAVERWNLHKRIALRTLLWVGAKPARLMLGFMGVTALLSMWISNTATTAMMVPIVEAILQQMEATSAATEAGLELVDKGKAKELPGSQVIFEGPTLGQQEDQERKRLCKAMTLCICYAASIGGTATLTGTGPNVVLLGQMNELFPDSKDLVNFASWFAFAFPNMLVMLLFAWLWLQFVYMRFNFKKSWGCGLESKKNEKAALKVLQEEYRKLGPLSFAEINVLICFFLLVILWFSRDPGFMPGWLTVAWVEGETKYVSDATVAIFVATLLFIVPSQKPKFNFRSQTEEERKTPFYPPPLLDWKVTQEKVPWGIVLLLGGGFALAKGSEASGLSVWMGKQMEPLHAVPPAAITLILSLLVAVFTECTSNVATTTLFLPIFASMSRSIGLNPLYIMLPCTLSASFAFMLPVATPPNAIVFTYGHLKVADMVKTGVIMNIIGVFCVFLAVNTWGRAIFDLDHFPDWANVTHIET
Compound,Activity (AML12 [1]),Activity (AML12 [2]),Activity (AML12 [3]),Activity (AML12 [4]),Km [5] [µM]
CC(C)(C)c1ccc(CC[C@@](O)(CC(=O)O)C(=O)O)cc1,inactive,inactive,,,
O=C(O)CC(O)(CCc1nc2ccccc2s1)C(=O)O (stereo unspecified),inactive,,Dose-Dependent Effect,,
CCn1nccc1-c1ccc(CCC(O)(CC(=O)O)C(=O)O)cc1 (stereo unspecified),inactive,,Dose-Dependent Effect,,
COc1ccccc1-c1ccc(CCC(O)(CC(=O)O)C(=O)O)cc1 (stereo unspecified),,,Dose-Dependent Effect,Dose-Dependent Effect,
"Na(+)/citrate cotransporter (Homo sapiens), Q86YT5",,,,,0.19
O=C(O)CC(O)(CCc1ccc2ccccc2c1)C(=O)O (stereo unspecified),,,Dose-Dependent Effect,Dose-Dependent Effect,
